From ChEMBL document CHEMBL1201862, “PubChem BioAssay data set” (2004) come the findings set out here.

The target in test [1] is Beta-2 adrenergic receptor (Homo sapiens, UniProt P07550). The test is described as follows: ADRB2 activation measured by internalization – cell-based, FAP fluorogen, flow cytometry, cherry pick 1, dose response (AID 588763). The format is functional.
Test [2] in a line: Counterscreen for AddAB inhibitors: absorbance-based bacterial cell-based high throughput dose response assay for inhibitors of bacterial viability. [Related pubchem assays (depositor defined):AID435030, AID449728, AID449731, AID488942, AID488955, AID488956]. The format is functional. (A counterscreen serves to expose hits that act by an unwanted route or on another target.)
For a further test, the target named is Exodeoxyribonuclease V (Escherichia coli (strain K12), UniProt P04993+P07648+P08394). The test is described as follows: RecBCD inhibition via phage-restricted bacterial growth – absorbance, V66 E. coli, mutant T4 phage, counter-screen for AddAB inhibitor project, dose response (AID 492957). It is filed as functional, cell-based, Escherichia coli str. K-12 substr. MG1655.

For test [3], the target named is T1, Type-1 angiotensin II receptor (Homo sapiens, UniProt P30556).
T1 sequence (P30556 whole entry): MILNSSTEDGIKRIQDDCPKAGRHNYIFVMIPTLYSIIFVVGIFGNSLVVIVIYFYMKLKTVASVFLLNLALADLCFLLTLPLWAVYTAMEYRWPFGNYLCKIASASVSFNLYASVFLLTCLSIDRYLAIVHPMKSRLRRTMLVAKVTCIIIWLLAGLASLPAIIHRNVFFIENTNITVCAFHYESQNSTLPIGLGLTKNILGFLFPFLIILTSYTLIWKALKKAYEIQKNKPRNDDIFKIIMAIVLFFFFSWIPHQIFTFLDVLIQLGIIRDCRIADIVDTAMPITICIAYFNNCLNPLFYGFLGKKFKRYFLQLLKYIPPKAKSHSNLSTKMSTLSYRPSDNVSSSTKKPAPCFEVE
Description: antagonism of angiotensin II type 1 receptor – cell-based, uHTS hits, selectivity assay for APJ receptor antagonist project, dose response (AID 463214).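 Further: antagonist potency against angiotensin II stimulated AT1 response.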 It is filed as functional.

The next test has as its target Beta-galactosidase (Escherichia coli, UniProt Q8VNN2). Description: PubChem AID 485352. The format is functional.
For test [4], the system named is HEK293. Description: cells. As to conditions: Homo sapiens.
The nature of test [5]: Vero E6 cell cytotoxicity, dose response, cytotoxicity control for non-replicating M. tuberculosis project, secondary assay (AID 492998). The format is functional, VeroE6. As to conditions: Vero C1008.
Test [6] addresses T2, Aryl hydrocarbon receptor (Homo sapiens, UniProt P35869).
T2 sequence (P35869 whole entry): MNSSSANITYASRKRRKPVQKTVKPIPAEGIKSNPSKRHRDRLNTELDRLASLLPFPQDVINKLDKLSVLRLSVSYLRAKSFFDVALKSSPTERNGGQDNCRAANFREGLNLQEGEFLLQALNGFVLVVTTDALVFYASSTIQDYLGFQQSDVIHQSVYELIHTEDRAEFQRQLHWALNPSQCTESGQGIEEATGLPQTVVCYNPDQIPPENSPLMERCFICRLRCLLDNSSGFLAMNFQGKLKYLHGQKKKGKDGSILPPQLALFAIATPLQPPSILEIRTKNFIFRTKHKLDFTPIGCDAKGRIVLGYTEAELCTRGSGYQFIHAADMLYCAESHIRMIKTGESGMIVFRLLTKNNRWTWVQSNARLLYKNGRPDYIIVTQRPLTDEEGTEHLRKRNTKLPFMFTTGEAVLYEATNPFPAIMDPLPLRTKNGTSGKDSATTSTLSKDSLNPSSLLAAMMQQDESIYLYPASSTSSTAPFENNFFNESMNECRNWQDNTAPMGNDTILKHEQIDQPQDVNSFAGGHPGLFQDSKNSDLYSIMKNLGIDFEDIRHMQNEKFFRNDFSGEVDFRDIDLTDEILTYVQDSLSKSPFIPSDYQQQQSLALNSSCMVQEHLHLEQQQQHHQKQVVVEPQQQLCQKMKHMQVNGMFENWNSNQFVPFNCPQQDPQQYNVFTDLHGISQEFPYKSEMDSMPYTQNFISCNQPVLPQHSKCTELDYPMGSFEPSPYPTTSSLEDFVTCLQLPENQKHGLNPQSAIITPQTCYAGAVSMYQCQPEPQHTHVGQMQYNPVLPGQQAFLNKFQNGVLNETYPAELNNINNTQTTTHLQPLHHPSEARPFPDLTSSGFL
The test is described as follows: Luminescence-based cell-based high throughput dose response assay for activators of the Aryl Hydrocarbon Receptor (AHR). [Related pubchem assays: 2796 (Primary screen (AHR activators in singlicate)), 2845 (Confirmation screen (AHR activators in triplicate)), 434939 (Counterscreen (PXR activators in triplicate)), 2804 (Summary (AHR activators))]. It is filed as ADME.

Test [7] is described as follows: microbe, parasite or virus in culture. It is filed as functional. Particulars: Mycobacterium tuberculosis.
Test [8] in a line: HepG2 cell cytotoxicity, dose response, cytotoxicity control for non-replicating M. tuberculosis project (AID 489018). The format is functional. As to conditions: Mycobacterium tuberculosis.
The test system of a further test is INS1. The test is described as follows: INS-1E survival protection against cytokine death – cell-based, luminescence, retest, dose response (AID 449756).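 Further: cell death triggered by IL-1 beta plus TNF-alpha plus IFN-gamma mixture; protective hits raise ATP signal compared with cytokine alone wells.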 The format is functional. As to conditions: Rattus norvegicus.
In another test the target is Ion channel NompC (Danio rerio, UniProt Q7T1G6). Description: Dose response cell-based high-throughput screening assay for agonists of the transient receptor potential channel N1 (TRPN1). [Related pubchem assays (depositor defined):AID1424, AID1448]. The format is functional.
Sequence of Ion channel NompC (Q7T1G6 whole entry): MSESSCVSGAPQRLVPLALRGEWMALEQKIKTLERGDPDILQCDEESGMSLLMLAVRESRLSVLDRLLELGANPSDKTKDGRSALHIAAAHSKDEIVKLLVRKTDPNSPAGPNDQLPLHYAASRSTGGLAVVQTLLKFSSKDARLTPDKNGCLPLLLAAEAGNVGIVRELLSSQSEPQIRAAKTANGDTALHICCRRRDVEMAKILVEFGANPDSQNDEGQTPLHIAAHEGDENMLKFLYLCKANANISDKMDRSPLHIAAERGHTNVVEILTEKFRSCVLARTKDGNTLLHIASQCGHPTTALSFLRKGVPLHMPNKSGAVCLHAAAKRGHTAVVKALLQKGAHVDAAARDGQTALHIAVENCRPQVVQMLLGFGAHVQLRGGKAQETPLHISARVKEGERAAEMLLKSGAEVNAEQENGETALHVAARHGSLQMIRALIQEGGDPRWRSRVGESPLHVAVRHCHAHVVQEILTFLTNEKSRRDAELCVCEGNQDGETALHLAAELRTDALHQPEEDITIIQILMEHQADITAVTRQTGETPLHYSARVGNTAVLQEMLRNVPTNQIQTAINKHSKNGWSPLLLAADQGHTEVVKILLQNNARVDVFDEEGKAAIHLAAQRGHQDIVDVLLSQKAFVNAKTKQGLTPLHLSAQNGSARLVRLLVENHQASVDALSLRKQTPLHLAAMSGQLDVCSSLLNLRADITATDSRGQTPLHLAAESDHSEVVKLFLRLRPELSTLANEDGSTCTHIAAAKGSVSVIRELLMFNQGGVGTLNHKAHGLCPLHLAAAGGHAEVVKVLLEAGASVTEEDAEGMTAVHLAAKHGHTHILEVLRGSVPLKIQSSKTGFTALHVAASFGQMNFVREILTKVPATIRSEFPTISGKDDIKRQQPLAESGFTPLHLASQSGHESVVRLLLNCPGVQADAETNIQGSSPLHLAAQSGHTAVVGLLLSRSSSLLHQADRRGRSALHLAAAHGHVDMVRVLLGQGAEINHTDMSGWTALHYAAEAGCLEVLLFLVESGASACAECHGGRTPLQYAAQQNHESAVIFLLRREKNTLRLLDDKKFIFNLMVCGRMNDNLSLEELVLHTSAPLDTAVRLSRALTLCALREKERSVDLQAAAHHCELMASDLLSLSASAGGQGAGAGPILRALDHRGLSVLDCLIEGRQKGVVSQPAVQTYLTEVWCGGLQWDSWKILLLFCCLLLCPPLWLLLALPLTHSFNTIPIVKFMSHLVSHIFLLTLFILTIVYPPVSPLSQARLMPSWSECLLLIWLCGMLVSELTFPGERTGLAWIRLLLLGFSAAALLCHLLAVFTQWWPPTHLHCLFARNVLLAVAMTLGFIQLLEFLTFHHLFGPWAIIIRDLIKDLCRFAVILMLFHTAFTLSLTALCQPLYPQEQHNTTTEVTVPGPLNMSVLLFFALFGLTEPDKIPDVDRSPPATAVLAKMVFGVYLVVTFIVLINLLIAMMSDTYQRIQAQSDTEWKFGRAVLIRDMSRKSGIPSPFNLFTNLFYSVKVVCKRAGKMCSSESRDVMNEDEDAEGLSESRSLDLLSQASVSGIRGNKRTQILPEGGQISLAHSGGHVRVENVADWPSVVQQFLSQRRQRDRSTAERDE
For the next test, the target named is T3, Mucolipin-3 (Homo sapiens, UniProt Q8TDD5).
T3 sequence (Q8TDD5 whole entry): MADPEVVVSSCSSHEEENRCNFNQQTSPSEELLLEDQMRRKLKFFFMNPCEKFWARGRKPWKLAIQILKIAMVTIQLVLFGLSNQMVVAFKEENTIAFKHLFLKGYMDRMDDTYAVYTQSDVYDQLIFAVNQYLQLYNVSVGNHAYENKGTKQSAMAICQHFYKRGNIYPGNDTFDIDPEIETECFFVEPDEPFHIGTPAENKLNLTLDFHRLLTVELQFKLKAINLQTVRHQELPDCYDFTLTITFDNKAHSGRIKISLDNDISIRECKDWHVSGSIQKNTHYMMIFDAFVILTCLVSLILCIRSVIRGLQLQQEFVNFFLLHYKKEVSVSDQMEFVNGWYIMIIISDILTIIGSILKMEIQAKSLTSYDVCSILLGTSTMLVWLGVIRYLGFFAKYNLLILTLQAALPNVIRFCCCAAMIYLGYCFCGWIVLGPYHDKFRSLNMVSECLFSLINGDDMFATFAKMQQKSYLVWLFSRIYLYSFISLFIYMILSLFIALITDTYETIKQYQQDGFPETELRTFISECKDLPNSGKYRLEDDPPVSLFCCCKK
The test is described as follows: Fluorescence counterscreen assay for […] agonists: dose response cell-based high-throughput screening assay to identify agonists of the transient receptor potential channel ML3 (TRPML3). [Related pubchem assays: 1424, 1448 ]. The format is functional.

Test [9] can be described thus: THP-1 cell cytotoxicity, dose response, cytotoxicity control for non-replicating M. tuberculosis project (AID 489025). It is filed as functional.
The next test in a line: cells. It is filed as functional.
Another test deals with HeLa. Description: Cytotoxicity counterscreen assay for transcriptional activators of heat shock protein 70 (Hsp70). [Related pubchem assays: 1203, 1252 ]. As to conditions: Homo sapiens. The format is functional.
The nature of test [10]: non-specific 3'UTR reporter inhibition in Clone20-Shn3RL – cell-based, Renilla luciferase, cherry-picked, counter-screen for Shn3 inhibitor project, dose response (AID 624133). It is filed as functional.
The nature of test [11]: loss of viability in HepG2 cells – cell-based, CellTiter-Glo, cherry-picked, cytotoxicity control for Shn3 inhibitor project, dose response (AID 624134). It is filed as functional. Background: ATP-based viability assays read luminescence as a measure of living cells.
The subject of test [12] is HEK293. Description: cells. As to conditions: Homo sapiens. The source holds these as a separate data set.
The next test concerns the target T4, Hexokinase-1 (Homo sapiens, UniProt P19367).
T4 sequence (P19367 whole entry): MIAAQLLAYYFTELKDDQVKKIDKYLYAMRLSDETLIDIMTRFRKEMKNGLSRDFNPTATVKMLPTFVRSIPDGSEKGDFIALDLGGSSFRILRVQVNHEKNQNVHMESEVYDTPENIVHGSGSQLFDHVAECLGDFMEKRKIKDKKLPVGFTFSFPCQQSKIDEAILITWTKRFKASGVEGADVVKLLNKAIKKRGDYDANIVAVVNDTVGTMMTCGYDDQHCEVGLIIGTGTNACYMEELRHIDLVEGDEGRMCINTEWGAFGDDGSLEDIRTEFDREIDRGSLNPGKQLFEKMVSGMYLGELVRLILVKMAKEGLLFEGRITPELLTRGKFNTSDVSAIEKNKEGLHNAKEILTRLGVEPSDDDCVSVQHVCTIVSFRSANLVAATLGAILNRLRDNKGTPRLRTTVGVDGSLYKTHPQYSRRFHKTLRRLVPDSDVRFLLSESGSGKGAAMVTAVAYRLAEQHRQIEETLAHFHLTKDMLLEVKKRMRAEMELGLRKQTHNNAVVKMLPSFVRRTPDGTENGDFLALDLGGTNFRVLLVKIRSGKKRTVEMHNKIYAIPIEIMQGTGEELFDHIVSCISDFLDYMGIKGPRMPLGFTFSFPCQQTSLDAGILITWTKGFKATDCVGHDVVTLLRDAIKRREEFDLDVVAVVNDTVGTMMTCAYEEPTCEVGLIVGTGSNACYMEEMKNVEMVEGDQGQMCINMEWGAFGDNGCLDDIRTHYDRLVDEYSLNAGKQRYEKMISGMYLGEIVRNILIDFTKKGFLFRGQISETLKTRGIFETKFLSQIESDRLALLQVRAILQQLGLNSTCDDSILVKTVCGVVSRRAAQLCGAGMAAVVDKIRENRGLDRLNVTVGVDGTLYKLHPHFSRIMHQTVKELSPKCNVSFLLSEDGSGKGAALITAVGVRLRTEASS
The test is described as follows: SAR analysis of small molecule inhibitors of hexokinase domain containing I (HKDC1) in the hexokinase 1 selectivity assay. [Related pubchem assays (depositor defined):AID493160, AID493190]. The format is functional.

The target in a further test is T5, Hexokinase HKDC1 (Homo sapiens, UniProt Q2TB90).
T5 sequence (Q2TB90 whole entry): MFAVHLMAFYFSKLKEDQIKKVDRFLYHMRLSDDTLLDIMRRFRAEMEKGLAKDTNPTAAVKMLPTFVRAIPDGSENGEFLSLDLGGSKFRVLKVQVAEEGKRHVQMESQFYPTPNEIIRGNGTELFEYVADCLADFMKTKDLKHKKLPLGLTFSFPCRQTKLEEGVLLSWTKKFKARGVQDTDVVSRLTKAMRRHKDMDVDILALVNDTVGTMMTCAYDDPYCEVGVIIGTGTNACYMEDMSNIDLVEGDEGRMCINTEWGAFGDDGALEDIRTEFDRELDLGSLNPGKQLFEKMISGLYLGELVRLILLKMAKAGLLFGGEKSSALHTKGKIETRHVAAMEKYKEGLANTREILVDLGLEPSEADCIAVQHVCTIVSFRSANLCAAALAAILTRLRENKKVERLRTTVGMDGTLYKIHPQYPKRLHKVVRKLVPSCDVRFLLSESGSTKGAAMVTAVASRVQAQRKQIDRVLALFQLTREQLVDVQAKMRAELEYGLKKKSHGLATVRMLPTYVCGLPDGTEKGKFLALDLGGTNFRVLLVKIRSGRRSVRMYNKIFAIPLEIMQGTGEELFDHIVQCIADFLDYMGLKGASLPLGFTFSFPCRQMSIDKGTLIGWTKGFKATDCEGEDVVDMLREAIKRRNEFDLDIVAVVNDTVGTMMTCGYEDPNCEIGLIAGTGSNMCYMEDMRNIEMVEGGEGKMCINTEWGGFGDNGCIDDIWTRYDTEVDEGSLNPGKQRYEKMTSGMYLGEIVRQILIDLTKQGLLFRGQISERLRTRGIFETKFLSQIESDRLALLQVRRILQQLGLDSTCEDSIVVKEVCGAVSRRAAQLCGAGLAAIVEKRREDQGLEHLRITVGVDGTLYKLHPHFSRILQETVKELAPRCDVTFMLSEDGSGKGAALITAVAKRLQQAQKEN
The test is described as follows: SAR analysis of small molecule inhibitors of hexokinase domain containing I (HKDC1). [Related pubchem assays (depositor defined):AID493160, AID493190]. It is filed as functional.

SMILES strings stand for the structures. Activity calls are given as the source filed them.

Sequence of Beta-2 adrenergic receptor (P07550 whole entry): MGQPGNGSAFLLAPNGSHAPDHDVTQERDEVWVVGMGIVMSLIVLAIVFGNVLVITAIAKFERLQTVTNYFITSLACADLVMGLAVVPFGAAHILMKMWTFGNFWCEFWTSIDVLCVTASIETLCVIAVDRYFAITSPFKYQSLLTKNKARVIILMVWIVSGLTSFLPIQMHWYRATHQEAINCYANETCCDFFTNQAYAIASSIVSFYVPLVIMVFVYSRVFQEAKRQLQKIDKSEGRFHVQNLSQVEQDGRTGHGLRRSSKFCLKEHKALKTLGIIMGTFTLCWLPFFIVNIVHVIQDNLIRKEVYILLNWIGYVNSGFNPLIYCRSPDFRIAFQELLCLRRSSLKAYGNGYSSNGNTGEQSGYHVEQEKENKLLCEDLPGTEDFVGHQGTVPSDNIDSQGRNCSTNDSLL
Sequence of Beta-galactosidase (Q8VNN2 whole entry): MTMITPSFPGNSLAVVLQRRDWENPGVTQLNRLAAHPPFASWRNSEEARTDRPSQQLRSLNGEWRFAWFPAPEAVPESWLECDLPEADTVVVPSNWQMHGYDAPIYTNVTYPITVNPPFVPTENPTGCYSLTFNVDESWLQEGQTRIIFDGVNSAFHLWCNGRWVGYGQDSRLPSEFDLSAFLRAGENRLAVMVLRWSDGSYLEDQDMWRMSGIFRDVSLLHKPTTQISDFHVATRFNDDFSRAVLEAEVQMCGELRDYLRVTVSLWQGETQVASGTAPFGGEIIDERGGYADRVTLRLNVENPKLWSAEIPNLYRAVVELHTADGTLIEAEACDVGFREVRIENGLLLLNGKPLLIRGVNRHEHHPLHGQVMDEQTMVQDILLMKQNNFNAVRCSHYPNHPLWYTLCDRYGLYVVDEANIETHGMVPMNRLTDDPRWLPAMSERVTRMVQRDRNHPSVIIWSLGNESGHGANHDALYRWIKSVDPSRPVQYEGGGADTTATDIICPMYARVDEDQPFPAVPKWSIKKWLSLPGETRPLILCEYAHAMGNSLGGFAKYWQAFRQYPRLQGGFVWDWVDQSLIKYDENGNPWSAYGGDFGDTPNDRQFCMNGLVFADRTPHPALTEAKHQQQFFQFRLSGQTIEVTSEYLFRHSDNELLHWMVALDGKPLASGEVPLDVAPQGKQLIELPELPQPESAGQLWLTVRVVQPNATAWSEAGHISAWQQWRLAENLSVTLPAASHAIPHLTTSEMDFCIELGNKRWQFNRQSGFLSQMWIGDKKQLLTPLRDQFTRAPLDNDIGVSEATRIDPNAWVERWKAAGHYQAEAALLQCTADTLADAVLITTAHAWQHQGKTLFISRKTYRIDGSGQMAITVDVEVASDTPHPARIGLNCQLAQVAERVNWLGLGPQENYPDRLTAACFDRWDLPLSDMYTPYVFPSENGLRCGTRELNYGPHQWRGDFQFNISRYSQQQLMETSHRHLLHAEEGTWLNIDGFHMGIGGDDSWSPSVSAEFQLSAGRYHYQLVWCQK

As to `CCOC(=O)c1cn(C2CC2)c2c(F)c(NCCCN(C)C)c(F)cc2c1=O`, in test [1], the EC50 (as a rule, the concentration that produces a half-maximal response) is 0.353 µM (active). Also, the values for the IC50 (in test [2]; at Exodeoxyribonuclease V) were 75.9 µM (inactive) and > 119 µM (inactive), respectively.
With `O=C(Cc1ccccc1)NCC(=O)OCC(=O)c1cccc([N+](=O)[O-])c1`, the IC50 (as a rule, the midpoint of a concentration-inhibition curve) in test [3] is recorded as 23.2 µM (not active). The EC50 on Beta-galactosidase is > 40 µM (inactive).
Regarding `CC(=O)Nc1sc2c(c1-c1nc3ccccc3s1)CCN(C(C)C)C2`, the EC50 was > 2.21 µM (active) with HEK293 [4]; > 1.13 µM (active) in [6]; 25.1 µM (inactive) at Ion channel NompC; > 29.9 µM (not active) at Mucolipin-3; > 59.6 µM (inactive) in the test on HEK293 [12]. Moreover, the CC50 is 3.05 µM (active) in [5]; 2.94 µM (active) in test [7]; 7.58 µM (active) in test [8]; 3.78 µM (active) in [9]; 9.92 µM (active) in the test on HeLa. The half-maximal activity concentration (AC50) (commonly the concentration at which the activity in the assay is half-maximal) in the test on INS1 is 1.77 µM (active); in [10] it was 20.1 µM (active); in [11], 4.53 µM (active). The IC50 in “cells” is 5.98 µM (active).
Regarding `COc1ccc(NC(=O)c2ccc(NC(=O)c3scnc3C)cc2)cc1`, the IC50 on Hexokinase-1 and at Hexokinase HKDC1 was > 80 µM (inactive) throughout.
`CCSc1nc2ccccc2n1C(=O)c1ccc(S(=O)(=O)N2CCCCCC2)cc1`: the EC50 in test [1] was 12.5 µM (inactive).
`Cc1ccoc1C(=O)Nc1cccc(C(=O)Nc2cccc(C(F)(F)F)c2)c1`: the IC50 on Hexokinase-1 and on Hexokinase HKDC1 was > 80 µM (inactive) throughout.
